Values joined by “and” are separate entries in the source; they are usually repeats but may differ in a detail not shown here. Identical values can stand only once. Marks after values point to notes of the source that are not given here.
Key:
[1] = molecular target: cannabinoid type-1 receptors endogenously expressed in Neuro2A cells (Mus musculus, UniProt P47746); assay: Intracellular cAMP levels; assay type: cell-based; details: for CB1R intrinsic activity: modulation of AC-activity compared to full agonist CP-55,940; for effect on intracellular cAMP compared to basal levels: 10 μM
Sequence of cannabinoid type-1 receptors endogenously expressed in Neuro2A cells (P47746 whole entry): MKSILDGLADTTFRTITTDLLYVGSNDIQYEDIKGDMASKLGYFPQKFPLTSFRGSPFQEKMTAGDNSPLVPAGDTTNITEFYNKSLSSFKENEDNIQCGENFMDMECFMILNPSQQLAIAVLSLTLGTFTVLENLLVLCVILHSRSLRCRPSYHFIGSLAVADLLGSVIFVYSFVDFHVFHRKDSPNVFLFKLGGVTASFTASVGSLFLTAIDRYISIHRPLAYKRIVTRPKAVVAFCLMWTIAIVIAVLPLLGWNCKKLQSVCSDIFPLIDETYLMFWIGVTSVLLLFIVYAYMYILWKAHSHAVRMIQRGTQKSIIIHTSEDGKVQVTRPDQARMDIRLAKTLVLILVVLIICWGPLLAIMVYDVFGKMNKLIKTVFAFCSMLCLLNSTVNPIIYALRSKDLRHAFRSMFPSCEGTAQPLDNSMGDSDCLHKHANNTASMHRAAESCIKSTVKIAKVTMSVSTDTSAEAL

[2] = molecular target: cannabinoid type-1 receptors (Mus musculus, UniProt P47746); details: read-out: [3H]CP binding Ki, ref Brents et al., 2011; cited from earlier work
Sequence of cannabinoid type-1 receptors (P47746 whole entry): as above

[3] = molecular target: human cannabinoid type-2 receptors (Homo sapiens, UniProt P34972); assay type: binding; details: for Selectivity CB1/CB2: CB1-Ki value divided CB2-Ki value
Sequence of human cannabinoid type-2 receptors (P34972 whole entry): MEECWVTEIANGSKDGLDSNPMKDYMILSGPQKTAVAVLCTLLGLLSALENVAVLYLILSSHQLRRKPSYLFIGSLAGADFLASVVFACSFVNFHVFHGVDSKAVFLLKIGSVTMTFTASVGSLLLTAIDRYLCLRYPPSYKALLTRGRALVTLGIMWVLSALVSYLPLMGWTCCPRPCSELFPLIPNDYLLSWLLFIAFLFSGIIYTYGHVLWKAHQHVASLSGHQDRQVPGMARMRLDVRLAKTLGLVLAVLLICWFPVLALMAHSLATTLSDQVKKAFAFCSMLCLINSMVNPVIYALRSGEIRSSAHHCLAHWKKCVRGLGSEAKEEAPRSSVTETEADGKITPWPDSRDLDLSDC

[4] = molecular target: human cannabinoid type-2 receptors stably expressed in CHO-hCB2 cells (Homo sapiens, UniProt P34972); assay: Intracellular cAMP levels; assay type: cell-based; details: for CB2R intrinsic activity: modulation of AC-activity compared to full agonist CP-55,940
Sequence of human cannabinoid type-2 receptors stably expressed in CHO-hCB2 cells (P34972 whole entry): as above

[5] = after oral delivery, plasma; ref Al-Ghananeem et al., 2007; cited from earlier work
[6] = up to a dose of 120 mg/kg; ref Geng et al., 2009; cited from earlier work

SMILES	reduction in intracellular cAMP levels when administered alone ([1]; EC90 concentration (10 nM), Neuro2A cells)	Adenylyl Cyclase Inhibition Imax (% Inhibition) ([1]; concentration-effect curve, intact Neuro2A cells, 10 μM forskolin)	CB1R intrinsic activity [1]	decrease in intracellular cAMP levels ([1]; screen, 1 μM, Neuro2A cells)	Ki [2] [pM]	Selectivity CB1/CB2 [3]	effect on intracellular cAMP compared to basal levels ([1]; screen, Neuro2A cells)	intrinsic activity from full concentration-effect curves ([4]; CHO-hCB2 cells)	Adenylyl Cyclase Inhibition Imax (% Inhibition) ([4]; concentration-effect curve, intact CHO-hCB2 cells, negative = increase in cAMP)	CB2R intrinsic activity [4]	increase in cAMP concentrations above basal levels ([4]; screen, 10 μM, CHO-hCB2 cells)	selectivity for binding to cannabinoid type-2 relative to type-1 receptors [3] [fold]	AUC [5] [ng·kg·min/mL/mg]	average Cmax [5]	acute toxicity [6]
CCCCCCC(C)(C)c1ccc([C@@H]2C[C@H](O)CC[C@H]2CCCO)c(O)c1 [CP-55,940, reference compound]	45.7 +/− 3.7%	42.4±3.8 % Inhibition and 42.4 ± 3.8^a % Inhibition	Agonist	64.1 +/− 1.6%	260 ± 100										
O=C1/C(=C/c2cn(Cc3ccc(Cl)cc3)c3ccccc23)N2CCC1CC2 [Compound 1]			Neutral Antagonist			1.56	did not significantly alter cAMP concentrations	full agonists	63.0 ± 5.2^a,b % Inhibition	Agonist					
COC(=O)c1ccc(Cn2cc(/C=C3/C(=O)C4CCN3CC4)c3ccccc32)cc1 [Compound 4]			Inverse Agonist			1.62	significant elevations in intracellular cAMP above basal levels			Inverse Agonist	278 +/− 38.6%				
OC1/C(=C/c2cn(Cc3ccccc3)c3ccccc23)N2CCC1CC2 (centres unmarked) [Compound 8, (Z)-2-((1-benzyl-1H-indol-3-yl)methylene)quinuclidin-3-ol]			Neutral Antagonist				did not significantly alter cAMP concentrations			Agonist		10	3561 ± 670	1,710 ± 503 ng/ml	did not produce any acute toxicity
